These results are taken from US20250136601A1 (priority 2022, published 2025).

Values joined by “and” are separate entries in the source; they are usually repeats but may differ in a detail not shown here. Equal values may be shown once. Read-outs that look alike come from different tables or passages of the source.

The target of one data set is postsynaptic D2 receptor (Homo sapiens (Human), UniProt P14416). The conditions noted are these: postsynaptic D2 receptor antagonist; Li et al., J Med Chem 2014; cited from earlier work.
Chain of postsynaptic D2 receptor (P14416 whole entry): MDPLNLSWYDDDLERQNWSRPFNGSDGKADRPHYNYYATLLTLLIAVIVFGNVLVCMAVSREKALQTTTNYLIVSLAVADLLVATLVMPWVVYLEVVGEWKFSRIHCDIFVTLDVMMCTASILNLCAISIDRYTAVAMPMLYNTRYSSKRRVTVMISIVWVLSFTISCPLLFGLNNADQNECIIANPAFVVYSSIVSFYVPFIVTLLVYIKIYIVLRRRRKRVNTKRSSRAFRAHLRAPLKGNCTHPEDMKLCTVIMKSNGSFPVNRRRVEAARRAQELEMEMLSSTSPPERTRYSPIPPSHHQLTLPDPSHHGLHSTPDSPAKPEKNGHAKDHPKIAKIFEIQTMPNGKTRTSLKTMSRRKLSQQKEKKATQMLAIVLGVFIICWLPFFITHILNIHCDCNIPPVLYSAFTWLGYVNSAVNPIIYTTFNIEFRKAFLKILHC
Data set [1] concerns depressive episodes associated with bipolar I or II disorder. Conditions: Calabrese et al. 2021; cited from earlier work.
For data set [2] the following is noted: for AUMC0-inf / AUMC0-t / Kel: 10 mg/kg IP, mice.
Description: (§1) The concentration of the compound in mouse plasma was determined using LC-MS/MS, and the relevant pharmacokinetic parameters were calculated to investigate the pharmacokinetic characteristics of the compound in mice.
(§2) Experimental design: 60 male C57 mice (purchased from Suzhou JOINN Laboratory Animal Co., Ltd.) were randomly divided into groups based on weight, with 3 mice per group. The mice were fasted with water ad libitum for 12 to 14 hours one day before test-article administration and fed 4 hours after the administration. The route of administration was intraperitoneal (IP), with a dosing concentration of 1 mg/mL, and a solvent formulation of 10% DMSO+90% saline.
(§3) Sample collection: 0.1 mL of blood was collected from the orbit under isoflurane anesthesia before and after test-article administration, transferred to EDTA K2 tubes, and placed on an ice bath. The samples were centrifuged at 5000 rpm for 10 minutes at 4° C., and the plasma was collected. […] Prior to analysis, all plasma samples were stored at −80° C.
(§4) Data processing: Drug concentrations in plasma and brain tissues were measured using LC-MS (API4000QTRAP triple quadrupole tandem mass spectrometer, equipped with an electrospray ionization source (ESI)). The data collection and control system software utilized was Analyst 1.5.1 (Applied Biosystems). The sample peak integration in the spectrum was conducted automatically; the ratio of the sample peak area to the internal standard peak area was used as an indicator to perform regression with the concentration of the sample. Regression method: Linear regression with a weighting factor of 1/X^2. Pharmacokinetic parameters were analyzed using a non-compartmental model in WinNonlin Professional v6.3 (Pharsight, USA). Cmax is the measured maximum plasma concentration, the area under the plasma concentration-time curve (AUC(0→0)) was calculated by the trapezoidal method, and Tmax is the time to reach peak plasma concentration after administration. Experimental data are presented as “Mean±Standard Deviation” (Mean±SD, n≥3) or “Mean” (n=2).
Data set [3] concerns the target T1, 5-HT2A receptor (Homo sapiens (Human), UniProt P28223). Put plainly: radioligand competitive binding assay, [3H]-LSD, 293T membranes.
The nature of the next data set: in vivo. Conditions: male, C57, mouse, ip, 10 mg/kg; for MRT / half-life / Tmax: 10 mg/kg IP, mice.
For data set [4], the target named is T1, 5-HT2A receptor. Briefly: cell-based. The data set is classed as cell-based. Here is the method: On the second day, the confluent cells from a 6 cm culture dish were digested and reseeded into a 96-well plate at a volume of 100 μL of culture medium per well. On the third day, the drugs were added for testing. The 96-well plate was taken out from the cell incubator to decant the culture medium. 40 μL of the substrate coelenterazine 400a (final concentration 5 μM) was added to each well, and then 20 μL of different drugs were added sequentially from left to right, ensuring that the final concentration of the drug decreased gradually from bottom to top, with two replicates per treatment. Finally, the prepared samples were loaded on a plate reader for signal quantification. The readout values reflected the recruitment of β-arrestin2 to the membrane or the dissociation of G protein trimer. The former indicated the degree of activation of the downstream β-arrestin2 signaling pathway mediated by the 5-HT2A receptor, and the latter indicated the degree of activation of the downstream G protein signaling pathway mediated by the 5-HT2A receptor.

A further data set addresses dopamine D2 receptor (Homo sapiens (Human), UniProt P14416). Put plainly: radioligand competitive binding assay, [3H]-Methylspiperone, 293T membranes. The conditions noted are these: affinity for the dopamine D2 receptor.
Data set [5] concerns head-twitch response in mice. Type of data set: in vivo, C57BL/6J mice. Conditions: intraperitoneal, at all doses tested, first 30 minutes. The text has this: Method: The head-twitch response in mice was detected via oscillatory signals to characterize hallucinogenic effects. Mice (strain C57BL/6J, purchased from Shanghai Lingchang Biotech Co., Ltd.) were anesthetized with 2% isoflurane. A small portion of the scalp was removed from the center of the dorsal cranium. A custom-made small neodymium magnet (4 mm×4 mm×2 mm) was attached to the center of the dorsal cranium using dental resin. The magnet N-S poles were kept parallel to the dorsoventral aspect of the implant. The mice were allowed to recover for 1 week before testing. To record precise head movements, the mice were placed in a glass beaker with a diameter of 12 cm, surrounded by 150 turns of #30 enameled copper wire. The output signal from the coil was recorded using a PowerLab/4SP instrument installed with LabChart V8.1.16 software. Coil voltage was amplified, low-pass filtered at 10 kHz to remove radio frequency interference, and sampled at 40 kHz. For the detection of head-twitch response in mice, LabChart data were processed with a digital band-pass filter at 40 to 200 Hz. The head-twitch response in mice was identified by searching for sinusoidal wavelets that met the following criteria: 1) containing more than two bipolar peaks; 2) amplitude exceeding background noise level; 3) duration less than 120 milliseconds. 1 hour prior to the test, the mice were transferred to the test room for acclimatization. Subsequently, the mice were placed in the beaker for 30 minutes, and baseline head-twitch response values were recorded. Immediately after baseline recording, the mice were injected intraperitoneally with the test compound, and head-twitch response values were recorded for 1 to 2 hours post-dose, depending on the compound used. Statistical values were taken from the first 30 minutes.

T1 sequence (P28223 whole entry): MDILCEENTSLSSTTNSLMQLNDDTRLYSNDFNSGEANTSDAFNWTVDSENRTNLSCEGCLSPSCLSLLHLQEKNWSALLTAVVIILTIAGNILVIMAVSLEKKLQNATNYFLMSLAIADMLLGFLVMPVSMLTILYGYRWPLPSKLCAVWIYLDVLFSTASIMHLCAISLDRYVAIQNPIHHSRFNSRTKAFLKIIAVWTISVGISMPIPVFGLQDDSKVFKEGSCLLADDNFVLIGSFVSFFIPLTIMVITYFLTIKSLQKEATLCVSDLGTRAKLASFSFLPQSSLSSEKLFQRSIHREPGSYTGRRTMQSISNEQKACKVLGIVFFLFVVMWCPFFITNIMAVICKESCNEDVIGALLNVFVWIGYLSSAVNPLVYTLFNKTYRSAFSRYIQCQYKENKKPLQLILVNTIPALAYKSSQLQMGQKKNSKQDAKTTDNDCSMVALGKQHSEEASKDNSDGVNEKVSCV
Chain of dopamine D2 receptor (P14416 whole entry, species assumed): as the sequence (P14416 whole entry) above
Description for dopamine D2 receptor: Method: The affinity of the compounds of the present disclosure for the dopamine D2 receptor was determined using a radioligand competitive binding assay as follows. In the first step, a cell membrane component containing dopamine D2 receptor was prepared. […] 48 hours post-transfection, the 10 cm culture dish was taken out from the cell incubator and the cultured cells had expressed the dopamine D2 receptor. The culture medium was aspirated using a vacuum pump, and 3 mL of lysis buffer was added to each culture dish. The cells were then placed in a cold room at 4° C. for 10 minutes. After the cells were detached, they were transferred to a 15 mL centrifuge tube and centrifuged at 1500 rpm for 5 minutes at 4° C., and the supernatant was discarded. The cell pellet was transferred to a tissue homogenizer, and 3 mL of lysis buffer was added. Sufficient grinding was applied to break the cells. The cell suspension was then equally aliquoted into several Eppendorf tubes and centrifuged at 12000 rpm for 5 minutes at 4° C., and the supernatant was discarded. The resulting precipitate was the cell membrane component containing the dopamine D2 receptor. […] The machine readout value reflected the amount of [3H]-Methylspiperone bound on the membrane, and after further data processing, the affinity Ki values of different compounds for the dopamine D2 receptor were obtained.
Description for in vivo: as §1, §2, §3, §4

The Ki is the equilibrium dissociation constant of an inhibitor or competing ligand from its target. `CN1CCN2c3c(cccc31)[C@@H]1CN(CCCC(=O)c3ccc(F)cc3)CC[C@@H]12` [lumateperone, Lumateperone]: the Ki at postsynaptic D2 receptor was 32 nM. The patient response rate in data set [1] is 51.1%.

In general, Cmax refers to the highest concentration seen after dosing. Broadly, the MRT is a mean duration of stay, worked out from the concentration-time curve. In general, half-life refers to the time needed for the level to fall by half in the phase considered. Lower therefore signals rapid decline. Broadly, the Tmax is the time at which the peak concentration occurs. Usually EC50 stands for the concentration needed to bring the measured effect to its halfway point. A higher EC50 goes with a less potent agent. Take `COc1ccccc1CCCN1CC[C@H]2[C@@H](C1)c1cccc3c1N2CCN3C` [Compound I-10]: in data set [2] (brain), the AUMC0-inf is 2054 h · h · ng · g^−1, the AUMC0-t is reported as 1979 h · h · ng · g^−1 and the Kel amounted to 0.865 h⁻¹. In data set [2] (mouse, in vivo, ip, 10 mg/kg), this compound showed an AUC0-inf of 1346 ng·h/g and an AUC0-t of 1335 ng·h/g. In data set [2] (plasma), this compound yielded an AUMC0-inf of 1230 h · h · ng · mL^−1, an AUMC0-t of 1169 h · h · ng · mL^−1 and a Kel of 0.654 h⁻¹. Besides, the Ki at 5-HT2A receptor [3] is under 100 nM. Also, in the data set “in vivo”, the AUC0-inf was 582 ng·h/mL; the AUC0-t was found to be 576 ng·h/mL; the Cmax was 225 ng/mL and 566 ng/g. In the data set “in vivo” (brain), the MRT was determined as 91.8 min and the Tmax was 30 min. For the same compound, in the data set “in vivo” (plasma), the MRT came to 127 min and the Tmax was 4.98 min. Moreover, the half-life in “in vivo” (T1/2, brain) was 48.1 min. Further, the half-life in the data set “in vivo” (T1/2, plasma) was 63.6 min. At 5-HT2A receptor [4], this compound showed an EC50 of 204 nM. Besides, the Emax at 5-HT2A receptor [4] (HEK-293T, read-out: β-arrestin2 signaling agonistic activity (percentage in parentheses)) came to 12.7%. The compound further gave a Ki on dopamine D2 receptor of 1860 nM. Besides, in data set [5], the “hallucinogenic effects (head-twitch response)” value is recorded as “did not induce hallucinogenic effects”.
